Data: PMC7179445, “Anticancer Activities of Newly Synthesized Chiral Macrocyclic Heptapeptide Candidates” (Molecules, 2020)
Where two headings read alike, the source gives them in different places.

Legend:
HepG2 cells = format: cell-based, human
Procedure: (§1) The cytotoxic effects of the prepared compounds on MCF-7 and HepG2 cells were investigated with the help of standard MTT assay. […] Plates were then further incubated for 72 h. Afterwards, 20 μL of MTT (5 mg/mL in PBS) were pipetted to the wells and incubated for another 4 h. The medium was then aspirated and 100 μL DMSO were added/well. Absorbance was read using a microplate reader at 570 nm. IC50 values, used to compare compound toxicity with control cells, were obtained from linear regression of the dose–response curve using Origin® 6.1 software (OriginLab Corporation, Northampton, MA, USA). […] Data were represented as mean ± SD.

MCF-7 cells = format: cell-based, human; conditions: for IC50: 72 h
Procedure: as §1

SMILES | IC50 (HepG2 cells; 72 h) | IC50 (MCF-7 cells) | cytotoxic activity against HepG2 cells (in words) (HepG2 cells) | cytotoxic activity against MCF-7 cells (in words) (MCF-7 cells) | IC50 (HepG2 cells; read-out: IC50 (compound concentration required to inhibit the cell viability by 50%), HepG-2, hepatocellular cancer cell line HepG2, MTT assay, RPMI 1640, 72 h incubation, absorbance 570 nm, mean ± SD, triplicates)
CC[C@H](C)[C@H](NC(=O)[C@@H](NC(=O)c1cccc(C(=O)N[C@H](C(=O)N[C@H](C(=O)O)[C@@H](C)CC)[C@@H](C)CC)n1)[C@@H](C)CC)C(=O)O [1a] | 6.62 ± 0.353 µM | 15.3 ± 0.672 µM |  |  | 
CC[C@H](C)[C@H](NC(=O)c1cccc(C(=O)N[C@H](C(=O)N[C@@H](Cc2ccccc2)C(=O)O)[C@@H](C)CC)n1)C(=O)N[C@@H](Cc1ccccc1)C(=O)O [1b] | 8.72 ± 0.474 µM | 10.9 ± 0.534 µM |  |  | 
CC[C@H](C)[C@H](NC(=O)[C@H](Cc1ccccc1)NC(=O)c1cccc(C(=O)N[C@@H](Cc2ccccc2)C(=O)N[C@H](C(=O)O)[C@@H](C)CC)n1)C(=O)O [1c] | 17 ± 0.965 µM | 34.9 ± 1.27 µM |  |  | 
CC[C@H](C)[C@H](NC(=O)c1cccc(C(=O)N[C@H](C(=O)N[C@H](C(=O)N[C@@H](Cc2ccccc2)C(=O)OC)[C@@H](C)CC)[C@@H](C)CC)n1)C(=O)N[C@H](C(=O)N[C@@H](Cc1ccccc1)C(=O)OC)[C@@H](C)CC [2a, N^α-Dipicolinoyl-bis[L-ILe-L-ILe-L-Phe-methyl ester]] | 17.5 ± 0.876 µM | > 100 µM |  |  | 
CC[C@H](C)[C@H](NC(=O)c1cccc(C(=O)N[C@H](C(=O)N[C@@H](Cc2ccccc2)C(=O)N[C@H](C(=O)OC)[C@@H](C)CC)[C@@H](C)CC)n1)C(=O)N[C@@H](Cc1ccccc1)C(=O)N[C@H](C(=O)OC)[C@@H](C)CC [2b, N^α-Dipicolinoyl-bis[L-ILe-L-L-Phe-ILe-methyl ester]] | 18.7 ± 0.988 µM | 20.7 ± 0.974 µM |  |  | 
CC[C@H](C)[C@H](NC(=O)[C@H](Cc1ccccc1)NC(=O)c1cccc(C(=O)N[C@@H](Cc2ccccc2)C(=O)N[C@H](C(=O)N[C@H](C(=O)OC)[C@@H](C)CC)[C@@H](C)CC)n1)C(=O)N[C@H](C(=O)OC)[C@@H](C)CC [2c, N^α-Dipicolinoyl-bis[L-Phe-L-ILe-L-ILe-methyl ester]] | 19.3 ± 1.06 µM | 24.9 ± 1.08 µM |  |  | 
CC[C@H](C)[C@H](NC(=O)c1cccc(C(=O)N[C@H](C(=O)N[C@H](C(=O)N[C@@H](Cc2ccccc2)C(=O)O)[C@@H](C)CC)[C@@H](C)CC)n1)C(=O)N[C@H](C(=O)N[C@@H](Cc1ccccc1)C(=O)O)[C@@H](C)CC [3a, N^α-Dipicolinoyl-bis[L-ILe-L-ILe-L-Phe-carboxylic acid]] | 8.06 ± 0.863 µM | 10.3 ± 0.546 µM |  |  | 
CC[C@H](C)[C@H](NC(=O)[C@H](Cc1ccccc1)NC(=O)[C@@H](NC(=O)c1cccc(C(=O)N[C@H](C(=O)N[C@@H](Cc2ccccc2)C(=O)N[C@H](C(=O)O)[C@@H](C)CC)[C@@H](C)CC)n1)[C@@H](C)CC)C(=O)O [3b, N^α-Dipicolinoyl-bis[L-ILe-L-Phe-L-ILe-carboxylic acid]] | 9.66 ± 0.792 µM | 9.91 ± 0.491 µM |  |  | 
CC[C@H](C)[C@H](NC(=O)[C@@H](NC(=O)[C@H](Cc1ccccc1)NC(=O)c1cccc(C(=O)N[C@@H](Cc2ccccc2)C(=O)N[C@H](C(=O)N[C@H](C(=O)O)[C@@H](C)CC)[C@@H](C)CC)n1)[C@@H](C)CC)C(=O)O [3c, N^α-Dipicolinoyl-bis[L-Phe-L-ILe-L-ILe-carboxylic acid]] | 17 ± 1.16 µM | 22.9 ± 0.992 µM |  |  | 
CC[C@H](C)[C@@H]1NC(=O)c2cccc(n2)C(=O)N[C@@H]([C@@H](C)CC)C(=O)N[C@@H]([C@@H](C)CC)C(=O)N[C@@H](Cc2ccccc2)C(=O)N[C@H](C(=O)OC)CCCCNC(=O)[C@H](Cc2ccccc2)NC(=O)[C@H]([C@@H](C)CC)NC1=O [4a, Cyclo-(N^α-dipicolinoyl)-bis-[(L-ILe-L-ILe-L-Phe)-L-Lysmethyl ester]] | 7.31 ± 0.595 µM | 9.3 ± 0.536 µM |  |  | 
CC[C@H](C)[C@@H]1NC(=O)c2cccc(n2)C(=O)N[C@@H]([C@@H](C)CC)C(=O)N[C@@H](Cc2ccccc2)C(=O)N[C@@H]([C@@H](C)CC)C(=O)N[C@H](C(=O)OC)CCCCNC(=O)[C@H]([C@@H](C)CC)NC(=O)[C@H](Cc2ccccc2)NC1=O [4b, Cyclo-(N^α-dipicolinoyl)-bis-[(L-ILe-L-Phe-L-Ile)-L-Lysmethyl ester]] | 7.17 ± 0.892 µM | 9.19 ± 0.545 µM |  |  | 
CC[C@H](C)[C@@H]1NC(=O)[C@H](Cc2ccccc2)NC(=O)c2cccc(n2)C(=O)N[C@@H](Cc2ccccc2)C(=O)N[C@@H]([C@@H](C)CC)C(=O)N[C@@H]([C@@H](C)CC)C(=O)N[C@H](C(=O)OC)CCCCNC(=O)[C@H]([C@@H](C)CC)NC1=O [4c, Cyclo-(N^α-dipicolinoyl)-bis-[(L-Phe-L-ILe-L-Ile)-L-Lysmethyl ester]] | 9.63 ± 0.932 µM | 19.6 ± 1.03 µM |  |  | 
CC[C@H](C)[C@@H]1NC(=O)c2cccc(n2)C(=O)N[C@@H]([C@@H](C)CC)C(=O)N[C@@H]([C@@H](C)CC)C(=O)N[C@@H](Cc2ccccc2)C(=O)N[C@H](C(=O)O)CCCCNC(=O)[C@H](Cc2ccccc2)NC(=O)[C@H]([C@@H](C)CC)NC1=O [5a, Cyclo-(N^α-dipicolinoyl)-bis-[(L-ILe-L-Ile-L-Phe)-L-Lyscarboxylic acid]] | 7.12 ± 0.79 µM |  |  |  | 
CC[C@H](C)[C@@H]1NC(=O)c2cccc(n2)C(=O)N[C@@H]([C@@H](C)CC)C(=O)N[C@@H](Cc2ccccc2)C(=O)N[C@@H]([C@@H](C)CC)C(=O)N[C@H](C(=O)O)CCCCNC(=O)[C@H]([C@@H](C)CC)NC(=O)[C@H](Cc2ccccc2)NC1=O [5b, Cyclo-(N^α-dipicolinoyl)-bis-[(L-ILe-L-Phe-L-Ile)-L-Lyscarboxylic acid]] | 7.09 ± 0.784 µM |  |  |  | 
CC[C@H](C)[C@@H]1NC(=O)[C@H](Cc2ccccc2)NC(=O)c2cccc(n2)C(=O)N[C@@H](Cc2ccccc2)C(=O)N[C@@H]([C@@H](C)CC)C(=O)N[C@@H]([C@@H](C)CC)C(=O)N[C@H](C(=O)O)CCCCNC(=O)[C@H]([C@@H](C)CC)NC1=O [5c, Cyclo-(N^α-dipicolinoyl)-bis-[(L-Phe-L-ILe-L-Ile)-L-Lyscarboxylic acid]] | 9.57 ± 1.14 µM |  | only active against HepG2 cells | did not show any activity | 
N.N.[Cl][Pt][Cl] [Cisplatin, reference compound] |  |  |  |  | 10.9 ± 0.962 µM
